Values joined by “and” are separate entries in the source; they are usually repeats but may differ in a detail not shown here. Identical values can stand only once. Toxic doses and inconclusive results are not listed.

The results in this text go back to PubChem BioAssay AID276 (DTP/NCI, 2004).

The subject of the assay is B6C3F1 mice, Lewis lung carcinoma iv, survival T/C. Nature of the assay: NCI In Vivo Anticancer Drug Screen. Data for tumor model Lewis Lung Carcinoma (intravenous) in B6C3F1 mice. Particulars: endpoint: median survival time, schedule: Q01DX009 (ip), higher = longer survival. The gist of the method: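 Transplantable tumor in mice; compound treated vs vehicle controls; read-out survival; value = treated/control (T/C).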

[1] abbreviates: dose: 100.0 mg/kg/injection, vehicle: water.
Where [2] appears, read: dose: 6.25 mg/kg/injection, vehicle: saline.
Where [3] appears, read: dose: 12.5 mg/kg/injection, vehicle: saline.
The mark [4] stands for this setting: dose: 25.0 mg/kg/injection, vehicle: saline.
[5] abbreviates: dose: 3.12 mg/kg/injection, vehicle: saline with Tween-80.
Where [6] appears, read: dose: 6.25 mg/kg/injection, vehicle: saline with Tween-80.
Where [7] appears, read: dose: 12.5 mg/kg/injection, vehicle: saline with Tween-80.
[8] abbreviates: dose: 25.0 mg/kg/injection, vehicle: saline with Tween-80.
[9] abbreviates: dose: 50.0 mg/kg/injection, vehicle: saline with Tween-80.
Setting [10] is: dose: 100.0 mg/kg/injection, vehicle: saline with Tween-80.
The mark [11] stands for this setting: dose: 1.0 mg/kg/injection, vehicle: saline with Tween-80.
Where [12] appears, read: dose: 4.0 mg/kg/injection, vehicle: saline with Tween-80.

As to `CC(C)[C@](O)(C(=O)OCC1=CCN2CC[C@@H](O)[C@@H]12)[C@H](C)O`, the T/C runs as follows: (dose: 25.0 mg/kg/injection, vehicle: water) 100 % of control; (dose: 50.0 mg/kg/injection, vehicle: water) 97 % of control; under setting [1], 100 % of control; (dose: 200.0 mg/kg/injection, vehicle: water) 109 % of control; (dose: 400.0 mg/kg/injection, vehicle: water) 102 % of control.

With `C[C@@H]1C[C@@H]([C@H](O)CC2CC(=O)NC(=O)C2)C(=O)[C@@H](C)C1`, the T/C runs as follows: under setting [2], 100 % of control; under setting [3], 105 % of control; under setting [4], 102 % of control.

Consider `O=S1(=O)C=C(c2ccccc2)C(c2ccccc2)=C1`, for which the T/C under setting [5] is 101 % of control, the T/C under setting [6] is 89 % of control, the T/C under setting [7] is 101 % of control and the T/C under setting [8] was 110 % of control.

With `CC[C@@H](C)[C@@H]1NC(=O)C(NC(=O)C(CC(C)C)N(C)C(=O)C2CCCN2C(=O)C(C)O)C(C)OC(=O)C(Cc2ccc(OC)cc2)N(C)C(=O)C2CCCN2C(=O)C(CC(C)C)NC(=O)C(C)C(=O)C(C(C)C)OC(=O)C[C@H]1O` (some centres not stated), the T/C by setting is: (dose: 25.0 micrograms/kg/injection, vehicle: distilled water + alcohol) 96 % of control; (dose: 50.0 micrograms/kg/injection, vehicle: distilled water + alcohol) 102 % of control; (dose: 100.0 micrograms/kg/injection, vehicle: distilled water + alcohol) 98 % of control; (dose: 200.0 micrograms/kg/injection, vehicle: distilled water + alcohol) 96 % of control; (dose: 400.0 micrograms/kg/injection, vehicle: distilled water + alcohol) 98 % of control.

In the case of `O=c1[nH]c2c(ccc3cnccc32)c2c1CCC2`, the T/C is 109 % of control (dose: 3.12 mg/kg/injection, vehicle: saline); 102 % of control under setting [2]; 105 % of control under setting [3]; 109 % of control under setting [4].

For `N=C(N)Sc1cc(O)ccc1O`, the T/C under setting [3] was 109 % of control; the T/C under setting [4] is 95 % of control; the T/C (dose: 50.0 mg/kg/injection, vehicle: saline) was 104 % of control; the T/C (dose: 100.0 mg/kg/injection, vehicle: saline) was 99 % of control; the T/C (dose: 200.0 mg/kg/injection, vehicle: saline) was 99 % of control.

As to `O=C(C/C(=N\C(=S)Nc1cc(C(F)(F)F)ccc1Cl)NO)N1CCCC1`, the T/C reads like this: under setting [8], 98 % of control and 101 % of control; under setting [9], 99 % of control and 105 % of control; under setting [10], 101 % of control and 111 % of control; (dose: 200.0 mg/kg/injection, vehicle: saline with Tween-80) 99 % of control.

`O=C1CN(CCN2CC(=O)N(CN3CCOCC3)C(=O)C2)CC(=O)N1CN1CCOCC1`: the T/C under setting [1] is 100 % of control.

With `COC1=C2C[C@@H](C)C[C@@H](OC)[C@@H](O)[C@H](C)/C=C(\C)[C@@H](OC(N)=O)[C@H](OC)/C=C\C=C(/C)C(=O)NC(=CC1=O)C2=O`, the T/C is, setting by setting: (dose: 0.12 mg/kg/injection, vehicle: saline with Tween-80) 96 % of control; (dose: 0.13 mg/kg/injection, vehicle: saline with Tween-80) 109 % of control; (dose: 0.25 mg/kg/injection, vehicle: saline with Tween-80) 96 % of control and 110 % of control; (dose: 0.5 mg/kg/injection, vehicle: saline with Tween-80) 101 % of control and 108 % of control; under setting [11], 101 % of control and 106 % of control; (dose: 2.0 mg/kg/injection, vehicle: saline with Tween-80) 100 % of control and 106 % of control. The T/C under setting [12] was 102 % of control.

`COc1cccc2c1C(=O)c1c(O)c3c(c(O)c1C2=O)C[C@@](O)(/C(C)=N\NC(=O)CO)C[C@@H]3OC1CC(N)C(O)C(C)O1` (some centres not stated): under setting [2], the T/C was 87 % of control.

As for `CCc1ccc(C2=C(O)C(=O)C(c3ccc(CC)cc3)=C(O)C2=O)cc1`, the T/C under setting [5] is 111 % of control; the T/C (dose: 6.0 mg/kg/injection, vehicle: saline with Tween-80) was 105 % of control; the T/C under setting [6] was 111 % of control; the T/C (dose: 12.0 mg/kg/injection, vehicle: saline with Tween-80) was 103 % of control; the T/C under setting [7] is 117 % of control; the T/C under setting [8] was 114 % of control and 88 % of control. Further, the T/C under setting [9] is 103 % of control and the T/C under setting [10] is 101 % of control.

For the molecule `O=NN(CCCl)C(=O)NC1CCC(=O)NC1=O` (configuration not stated), the T/C by setting is: under setting [11], 113 % of control; under setting [12], 225 % of control; (dose: 8.0 mg/kg/injection, vehicle: saline with Tween-80) 312 % of control; (dose: 16.0 mg/kg/injection, vehicle: saline with Tween-80) 93 % of control.

On to `Nc1nc(N)c2c(ccc3c2ccn3Cc2cccc([N+](=O)[O-])c2)n1`, for which the T/C was 98 % of control (dose: 1.56 mg/kg/injection, vehicle: saline with Tween-80); 102 % of control under setting [5]; 103 % of control under setting [6].

In the case of `COC(=O)NC1C(C)OC(OC2C/C=C(/C)C3C=CC4C(OC5CC(OC6CCC(OC7CC(O)C(OC8CCC(O)C(C)O8)C(C)O7)C(C)O6)C(OC(C)=O)C(C)O5)C(C)CC(C)C4C3(C)/C(O)=C3/C(=O)OC4(CC(C=O)=CC(O)C4/C=C\2C)C3=O)CC1(C)[N+](=O)[O-]` (configuration not stated), the T/C is, setting by setting: (dose: 1.25 mg/kg/injection, vehicle: water) 108 % of control; (dose: 2.5 mg/kg/injection, vehicle: water) 97 % of control; (dose: 5.0 mg/kg/injection, vehicle: water) 98 % of control.

As for `Nc1nc(=S)c2ncn(C3CC(O)C(CO)O3)c2[nH]1` (configuration not stated), the T/C by setting is: (dose: 12.5 mg/kg/injection, vehicle: suspension in saline) 113 % of control; (dose: 25.0 mg/kg/injection, vehicle: suspension in saline) 100 % of control; (dose: 50.0 mg/kg/injection, vehicle: suspension in saline) 108 % of control; (dose: 100.0 mg/kg/injection, vehicle: suspension in saline) 103 % of control; (dose: 200.0 mg/kg/injection, vehicle: suspension in saline) 95 % of control; (dose: 400.0 mg/kg/injection, vehicle: suspension in saline) 90 % of control.

As to `Cc1cc(NCCCCCCNc2cc(C)nc3cc(N(C)C)ccc23)c2ccc(N(C)C)cc2n1`, the T/C (dose: 3.12 mg/kg/injection, vehicle: distilled water + Tween-80 + alcohol) was 98 % of control; the T/C (dose: 6.25 mg/kg/injection, vehicle: distilled water + Tween-80 + alcohol) was 100 % of control; the T/C (dose: 12.5 mg/kg/injection, vehicle: distilled water + Tween-80 + alcohol) was 93 % of control; the T/C (dose: 25.0 mg/kg/injection, vehicle: distilled water + Tween-80 + alcohol) is 102 % of control.

Take `CC(=O)OC1C(O)C(C)OC(OC2C(OC(=O)C3CCC4C(C3)OC3(CC(OC(=O)/C=C/c5ccccc5)C(C)CO3)C43CO3)OC(C)C(O)C2OC(C)=O)C1O` (configuration not stated): the T/C reads like this: (dose: 1.0 mg/kg/injection, vehicle: distilled water + Tween-80) 105 % of control; (dose: 2.0 mg/kg/injection, vehicle: distilled water + Tween-80) 99 % of control; (dose: 4.0 mg/kg/injection, vehicle: distilled water + Tween-80) 100 % of control; (dose: 8.0 mg/kg/injection, vehicle: distilled water + Tween-80) 102 % of control; (dose: 16.0 mg/kg/injection, vehicle: distilled water + Tween-80) 91 % of control.
